Source: patent publication US11142547B2, “Polypeptide and use thereof” (Genoimmune Therapeutics Co., Ltd., priority 2016, dated 2021)

Tested on: CD8+ T cells
Experiment: In vitro stimulation of CD8+ T cells by polypeptide-loaded mature DCs, cell counting
Type: cell-based, human
Settings: CD8+ T cells with polypeptide-specific mature DCs, counted on day 10; 2.5 × 10^6 before incubation
Protocol: Peripheral blood mononuclear cells (PBMCs) in 100 mL peripheral blood obtained from a HLA-A0201-positive healthy volunteer were isolated using the Ficoll solution, where CD8^+ T cells among the PBMCs were isolated with CD8 magnetic beads, and monocytes among the PBMCs were incubated by an adherence method. Such the monocytes were induced into immature dendritic cells (DCs) in the presence of GM-CSF (1000 U/ml) and IL-4 (1000 U/ml), followed by inducing to polypeptide-specific mature DCs in the presence of IFN-γ (100 U/ml) and CD40L (100 U/ml) as well as the subsequently added with the mutant polypeptide (depicted in […], SEQ ID NO:1), the mutant polypeptide's variant (depicted in […], SEQ ID NO:2), the mutant polypeptide's variant (depicted in […], SEQ ID NO:3), and the mutant polypeptide's variant (depicted in […], SEQ ID NO:4), respectively.
The CD8^+ T cells from the volunteer in a well were incubated with the mature DCs obtained, along with IL-21, with addition of IL-2 and IL-7 after 3 days' culture and addition IL-2 and IL-7 again at day 5 and day 7 respectively, after which the collected mixture of cells were counted on day 10, for use in the next enzyme-linked immune-spot assay (ELISPOT) and lactate dehydrogenase (LDH) assay.

FLLGNLFFL
Total number of cells in the well after incubation: 1.57 × 10^7

FLLGNLFFV
Total number of cells in the well after incubation: 1.72 × 10^7

FMLGNLFFL
Total number of cells in the well after incubation: 1.41 × 10^7

FMLGNLFFV
Total number of cells in the well after incubation: 1.49 × 10^7
